Usually IC50 stands for the point on the concentration scale where inhibition reaches its midpoint. Low values mean greater potency in that assay, high ones weaker potency in that assay.

Consider three compounds from patent US9708338B2, “Aromatic heterocyclylamine derivative having TRPV4-inhibiting activity” (Shionogi & Co., Ltd., priority 2013, dated 2017).

A short description of data set [1]: Test Example 7 Metabolism stability test. Particulars: 0.5 μmol/L of test compound, human liver microsomes 0.5 mg protein/mL, 37° C. In kind it is in vitro ADME. The method, then: Using commercially available pooled human hepatic microsomes, a compound of the present invention was reacted for a constant time, and a remaining rate was calculated by comparing a reacted sample and an unreacted sample, thereby, a degree of metabolism in liver was assessed.
A reaction was performed (oxidative reaction) at 37° C. for 0 minute or 30 minutes in the presence of 1 mmol/L NADPH in 0.2 mL of a buffer (50 mmol/L Tris-HCl pH 7.4, 150 mmol/L potassium chloride, 10 mmol/L magnesium chloride) containing 0.5 mg protein/mL of human liver microsomes. After the reaction, 50 μL of the reaction solution was added to 100 μL of a methanol/acetonitrile=1/1 (v/v), mixed and centrifuged at 3000 rpm for 15 minutes. The compound of the present invention in the supernatant was quantified by LC/MS/MS, and a remaining amount of the compound of the present invention after the reaction was calculated, letting a compound amount at 0 minute reaction time to be 100%. Hydrolysis reaction was performed in the absence of NADPH and glucuronidation reaction was in the presence of 5 mmol/L UDP-glucuronic acid in place of NADPH, followed by similar operations. (Result) % inhibition was shown at 0.5 μmol/L of test compound.
For orientation: Microsomes from liver hold many membrane-bound enzymes, among them those of drug oxidation.

In data set [2] the target is T1, human TRPV4 (Homo sapiens, UniProt Q9HBA0).
T1 construct: expressed in transfected cells; host or cells: CHO-K1
T1 sequence (Q9HBA0 whole entry): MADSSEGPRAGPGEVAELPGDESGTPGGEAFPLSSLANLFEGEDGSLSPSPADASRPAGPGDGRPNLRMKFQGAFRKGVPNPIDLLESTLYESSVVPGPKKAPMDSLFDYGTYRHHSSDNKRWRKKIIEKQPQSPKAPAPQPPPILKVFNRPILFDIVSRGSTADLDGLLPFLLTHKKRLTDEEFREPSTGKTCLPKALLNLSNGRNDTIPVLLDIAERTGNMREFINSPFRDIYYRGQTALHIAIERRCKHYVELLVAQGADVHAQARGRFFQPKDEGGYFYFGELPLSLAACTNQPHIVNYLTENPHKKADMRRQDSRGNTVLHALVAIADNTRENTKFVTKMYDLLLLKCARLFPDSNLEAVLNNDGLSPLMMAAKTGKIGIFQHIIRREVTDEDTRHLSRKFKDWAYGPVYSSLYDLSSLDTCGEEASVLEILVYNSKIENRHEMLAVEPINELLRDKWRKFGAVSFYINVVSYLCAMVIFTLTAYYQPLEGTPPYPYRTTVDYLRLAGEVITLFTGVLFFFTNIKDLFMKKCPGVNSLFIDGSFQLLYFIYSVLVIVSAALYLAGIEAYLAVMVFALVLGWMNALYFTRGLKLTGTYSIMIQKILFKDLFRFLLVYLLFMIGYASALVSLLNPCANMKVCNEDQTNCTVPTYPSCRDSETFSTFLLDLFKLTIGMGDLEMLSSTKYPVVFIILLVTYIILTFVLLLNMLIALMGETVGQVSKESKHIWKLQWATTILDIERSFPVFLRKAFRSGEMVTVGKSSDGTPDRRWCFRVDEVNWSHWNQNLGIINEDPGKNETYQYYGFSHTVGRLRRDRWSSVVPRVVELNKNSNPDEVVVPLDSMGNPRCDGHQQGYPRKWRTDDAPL
The experiment in a line: Test Example 1 Measurement of TRPV4 inhibitory activity (IC50 value). In kind it is cell-based. To be noted: CHO-K1 cells stably expressing human TRPV4; Fluo 4-AM, FLIPR TETRA; final 1 μmol/L 4α-PDD. The procedure: (§1) For each compound, TRPV4 inhibitory activity was measured using cells. (Method) TRPV4 inhibitory activity of the compound was evaluated in accordance with the following procedure.
(§2) (1) The TRPV4 inhibitory activity was measured using CHO-K1 cells stably expressing human TRPV4.
(2) In the day before the experimental day, frozen cell were thawed and washed with the culture medium (MEM-α, 10% FBS, 2 mmol/L GlutaMax, 50 unit Penicillin, 50 μg/mL Streptomycin, 20 mmol/L HEPES). Then cells were suspended in the culture medium.
(3) The 384-well plates which hTRPV4/CHO cells were seeded at densities of 4000 cells/well in the culture medium and cultured in a CO2 incubator in the presence of 5% CO2 at 37° C. for overnight was used as assay plates.
(4) The assay plate was washed with assay buffer (Hanks, 20 mmol/L HEPES, 2.5 mmol/L probenecid, pH 7.4), and the buffer were remained at 20 μL/well.
(5) 10 μl of dye loading buffer (9 μmol/L Fluo 4-AM, 0.09% Pluronic F-127/assay buffer) was added to each well, then the assay plate was incubated in a CO2 incubator in the presence of 5% CO2 at 37° C. for one hour (final 3 μmol/L Fluo4-AM).
(6) The assay plate was washed with the assay buffer, and the buffers were remained at 20 μL/well. Then the assay plate was incubated for 10 min at room temperature.
(7) 20 μL/well of diluted compound solution was dispensed to each well in the compound plate, and mixed with built-in Pipette and Mixer of the Fluorescence analysis system FLIPR TETRA (Molecular devices).
(8) After incubation for 5 min, 20 μL/well of 4α-PDD solution were applied to each well of assay plate and mixed with the FLIPR TETRA (final 1 μmol/L 4α-PDD).
(9) The fluorescent intensity was measured with FLIPR TETRA system for 5 min from the point of time addition the compound solution, at Ex 470-495 nm, Em 515-575 nm wavelength.
(§3) In addition, TRPV4 inhibitory activity (IC50 value) of a compound was evaluated according to the following procedure.
(10) In the presence of the compound, the difference between maximal and minimal of fluorescent intensity value for 5 min from just before addition of 4α-PDD solution was calculated, and it was referred as Max−Min value. Max−Min value of the compound A at 1 μmol/L was defined as 100% inhibitory activity, Max−Min value in the absence of the compound was defined as 0% inhibitory activity. The TRPV4 inhibitory activity of the compound was calculated by the following formula. Inhibition ratio=(1−(Max−Min value of the compound−100% inhibitory activity)/(0% inhibitory activity−100% inhibitory activity))×100
Herein, the compound A is the compound I-186 described in PCT/JP2013/058722.
(11) Inhibitory activity was calculated at 10 points with three fold serial dilution, in the final concentration of the compound from 10 μmol/L to 0.5 nmol/L, the IC50 value (nmol/L) was calculated by logistic approximation method.

Data set [3] deals with T2, CYP3A4 (Homo sapiens, UniProt P08684).
T2 construct: host or cells: Escherichia coli
T2 sequence (P08684 whole entry): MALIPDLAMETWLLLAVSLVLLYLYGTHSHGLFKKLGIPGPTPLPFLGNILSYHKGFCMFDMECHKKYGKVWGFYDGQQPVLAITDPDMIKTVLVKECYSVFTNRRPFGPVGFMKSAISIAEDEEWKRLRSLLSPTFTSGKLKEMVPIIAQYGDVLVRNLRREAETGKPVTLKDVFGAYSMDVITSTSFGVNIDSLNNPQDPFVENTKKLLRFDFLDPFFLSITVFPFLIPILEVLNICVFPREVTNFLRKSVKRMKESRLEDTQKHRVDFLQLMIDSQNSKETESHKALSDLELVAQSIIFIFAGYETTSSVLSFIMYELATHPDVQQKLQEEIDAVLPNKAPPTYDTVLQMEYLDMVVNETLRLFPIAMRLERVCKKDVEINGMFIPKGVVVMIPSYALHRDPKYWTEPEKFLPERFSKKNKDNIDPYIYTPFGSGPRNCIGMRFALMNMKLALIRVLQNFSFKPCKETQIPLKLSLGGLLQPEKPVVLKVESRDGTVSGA
The experiment in a line: Test Example 3 CYP3A4 fluorescent MBI test. In kind it is in vitro ADME. To be noted: CYP3A4 expressed in Escherichia coli; substrate 7-BFC; pre-reaction time 0 or 30 minutes. The method, then: The CYP3A4 fluorescent MBI test is a test of investigating enhancement of CYP3A4 inhibition of a compound of the present invention by a metabolism reaction, and the test was performed using, as CYP3A4 enzyme expressed in Escherichia coli and employing, as an index, a reaction in which 7-benzyloxytrifluoromethylchmarin (7-BFC) is debenzylated by the CYP3A4 enzyme to produce a metabolite, 7-hydroxytrifluoromethylchmarin (7-HFC) emitting fluorescent light.
The reaction conditions were as follows: substrate, 5.6 μmol/L 7-BFC; pre-reaction time, 0 or 30 minutes; reaction time, 15 minutes; reaction temperature, 25° C. […]
An enzyme in a K-Pi buffer (pH 7.4) and a solution of a compound of the present invention as a pre-reaction mixture were added to a 96-well plate at the above composition of the pre-reaction, a part of it was transferred to another 96-well plate so that it was 1/10 diluted by a substrate in a K-Pi buffer, NADPH as a co-factor was added to initiate a reaction as an index (without preincubation) and, after a predetermined time of a reaction, acetonitrile/0.5 mol/L Tris (trishydroxyaminomethane)=4/1 (v/v) was added to stop the reaction. […] For the plate on which each index reaction had been performed, a fluorescent value of 7-HFC which is a metabolite was measured with a fluorescent plate reader. […]

Data set [4] has as its target T1, human TRPV4. The experiment in a line: Test Example 2' Measurement of TRPV4 inhibitory activity (IC50 value). In kind it is cell-based. Particulars: CHO-K1 cells stably expressing human TRPV4; DMEM 3% FBS, 3000 cells/well; final 0.15 μmol/L 4α-PDD. The method, then:
as §1, §2
(2) In the day before the experimental day, frozen cell were thawed and washed with the culture medium (DMEM, 3% FBS, 2 mmol/L GlutaMax, 50 unit Penicillin, 50 μg/mL Streptomycin, 0.1 mmol/L Non-Essential Amino Acids, 25 mmol/L HEPES). Then cells were suspended in the culture medium. […] (7) 20 μL/well of diluted compound solution was dispensed to each well in the compound plate, and mixed with built-in Pipette and Mixer of the Fluorescence analysis system FLIPR TETRA (Molecular devices). […] (9) The fluorescent intensity was measured with FLIPR TETRA system for 5 min from the point of time addition the compound solution, at Ex 470-495 nm, Em 515-575 nm wavelength.
as §3
(10) In the presence of the compound, the difference between maximal and minimal of fluorescent intensity value for 5 min from just before addition of 4α-PDD solution was calculated, and it was referred as Max−Min value. […] The TRPV4 inhibitory activity of the compound was calculated by the following formula. […]

For data set [5], the target named is T3, human ether-a-go-go related gene (hERG) channel (Homo sapiens, UniProt Q12809).
T3 construct: expressed in transfected cells; host or cells: CHO
T3 sequence (Q12809 whole entry): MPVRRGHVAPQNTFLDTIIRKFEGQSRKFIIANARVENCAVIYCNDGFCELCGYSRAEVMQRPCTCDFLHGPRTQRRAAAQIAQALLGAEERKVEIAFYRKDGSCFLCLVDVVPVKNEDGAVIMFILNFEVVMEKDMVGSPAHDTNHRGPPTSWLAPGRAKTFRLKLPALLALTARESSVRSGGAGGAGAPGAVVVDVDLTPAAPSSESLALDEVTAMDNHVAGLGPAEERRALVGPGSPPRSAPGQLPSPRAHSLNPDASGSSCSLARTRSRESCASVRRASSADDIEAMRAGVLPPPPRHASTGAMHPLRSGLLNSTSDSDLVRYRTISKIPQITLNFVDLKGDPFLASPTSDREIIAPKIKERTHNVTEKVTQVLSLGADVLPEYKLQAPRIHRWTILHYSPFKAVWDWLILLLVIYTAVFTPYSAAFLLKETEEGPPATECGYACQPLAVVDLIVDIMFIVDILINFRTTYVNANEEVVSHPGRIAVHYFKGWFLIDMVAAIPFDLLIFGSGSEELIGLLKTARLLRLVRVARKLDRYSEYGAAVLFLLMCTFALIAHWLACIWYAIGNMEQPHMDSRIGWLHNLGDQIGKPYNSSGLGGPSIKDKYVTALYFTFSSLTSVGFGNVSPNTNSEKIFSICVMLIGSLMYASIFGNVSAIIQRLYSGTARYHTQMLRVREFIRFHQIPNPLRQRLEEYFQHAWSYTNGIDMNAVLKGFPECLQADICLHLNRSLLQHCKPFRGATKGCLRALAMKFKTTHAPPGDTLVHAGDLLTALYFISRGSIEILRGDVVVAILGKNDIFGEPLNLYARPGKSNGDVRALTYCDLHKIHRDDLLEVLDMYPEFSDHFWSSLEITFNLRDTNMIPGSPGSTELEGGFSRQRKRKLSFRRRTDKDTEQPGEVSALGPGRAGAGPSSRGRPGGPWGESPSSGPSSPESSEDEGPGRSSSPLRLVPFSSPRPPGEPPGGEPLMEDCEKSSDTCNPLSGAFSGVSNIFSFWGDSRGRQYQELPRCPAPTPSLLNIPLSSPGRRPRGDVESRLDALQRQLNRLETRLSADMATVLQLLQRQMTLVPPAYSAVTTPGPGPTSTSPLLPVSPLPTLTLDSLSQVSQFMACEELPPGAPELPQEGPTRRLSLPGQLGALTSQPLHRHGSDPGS
Nature of the data set: Test Example 8 hERG test. In kind it is cell-based. To be noted: 1 μmol/L of test compound; CHO cells expressing hERG; whole cell patch clamp (QPatch). An excerpt: For the purpose of assessing risk of an electrocardiogram QT interval prolongation of the compound of the present invention, effects of the compound of the present invention on delayed rectifier K^+ current (IKr), which plays an important role in the ventricular repolarization process, was studied using CHO cells expressing human ether-a-go-go related gene (hERG) channel.
After a cell was retained at a membrane potential of −80 mV by whole cell patch clamp method using an automated patch clamp system (QPatch; Sophion Bioscience A/S), IKr induced by depolarization pulse stimulation at +20 mV for 2 seconds and, further, repolarization pulse stimulation at −50 mV for 2 seconds, was recorded. […] From the recording IKr, an absolute value of the tail peak current was measured based on the current value at the resting membrane potential using analysis software (Falster Patch; Sophion Bioscience A/S). Further, the % inhibition relative to the tail peak current before application of the compound of the present invention was calculated, and compared with the vehicle-applied group (0.1% dimethyl sulfoxide solution) to assess influence of the compound of the present invention on IKr. […]

On to `Cc1nc(C(C)O)sc1-c1csc(Nc2ccc(CNc3ccc(Cl)cc3F)cn2)n1.Cl.Cl` (stereo not shown) [Compound I-157], for which the “Percent of compound remaining after 30 min incubation” value in data set [1] was 83.6%. For the same compound, in data set [2], half-maximal inhibition (IC50) required 14 nM. The “CYP3A4 fluorescent MBI: difference between IC50 values” in data set [3] was “(−) (when the difference is 3 μmol/L or less, this was defined as (−))”.

As for `Cc1nc(C)c(-c2csc(Nc3ccc(C(=O)C4CCCC4)cn3)n2)s1` [Compound I-897], the IC50 in data set [4] is 2.8 nM. That is a single-digit nanomolar value.

In the case of `Cc1nc(C)c(-c2csc(Nc3ccc(CNc4ccc(Cl)cc4F)cn3)n2)s1` [Compound I-48], in data set [1], the “Percent of compound remaining after 30 min incubation” value was determined as 78.6%. Also, in data set [2], 1.2 nM corresponded to half-maximal inhibition (IC50). In data set [5], the “hERG % inhibition of tail peak current (IKr)” value is given as 8.1%.
